Results on 10 compounds are retold here after ChEMBL document CHEMBL1201862, “PubChem BioAssay data set” (2004).

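Dose response: 5 concentrations. Exposure: 48 h. Format: 96-well plates. Endpoint: linear interpolation; highest concentration if not reached. GI50 = concentration required for 50% inhibition of growth.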 Calls of active or inactive are those of the source. No stated cut-off is given here; in the data, active = GI50 up to about 1.1 µM and inactive = higher.

Holding throughout (assay): NCI tumour cell line growth inhibition, 48 h
The subject of assay [1] is CCRF-CEM.
In assay [2] the test system is OVCAR-8.
The test system of assay [3] is NCI-H226.
Assay [4] has as its system SF-539.
In assay [5] the test system is M14.
Assay [6] relates to RPMI-8226.
For assay [7], the system named is T47D.
Assay [8] relates to BT-549.
Assay [9] deals with RXF 393.
The subject of assay [10] is UACC-257.
The test system of assay [11] is SK-OV-3.
Assay [12] deals with Malme-3M.
In assay [13] the test system is HCT-116.
Assay [14] deals with HOP-92.
The test system of assay [15] is SF-295.
For assay [16], the system named is SNB-19.
Assay [17] relates to A549.
Assay [18] deals with MDA-MB-231.
In assay [19] the test system is Hs-578T.
For assay [20], the system named is 786-0.

Consider `O=C1C=C(O)C(=O)c2c(O)ccc(O)c21`, for which the GI50 in assay [1], in assay [2], in [3], in assay [4], in assay [5] and in [6] was > 100 µM (inactive) each time. Moreover, the GI50 in [7] is > 100 µM (inactive); in assay [8] it was > 100 µM (inactive); in assay [9], > 100 µM (inactive); in assay [10], > 100 µM (inactive); in assay [11], > 100 µM (inactive); in assay [12] it was 88.5 µM (inactive). In addition, the GI50 in assay [13], in assay [14], in [15], in assay [16], in [17] and in [18] was > 100 µM (inactive) each time. The GI50 in assay [19] and in [20] was > 100 µM (inactive) throughout.

`Clc1cc2ccccc2c2ccccc12`: the GI50 in assay [1] was < 0.01 µM (active); in assay [2], > 100 µM (inactive); in assay [3], > 100 µM (inactive); in assay [4] it was 64 µM (inactive); in assay [5], 31.5 µM (inactive); in assay [6], 31.9 µM (inactive). Further, the GI50 in assay [7] is 32 µM (inactive); in assay [8], 49.2 µM (inactive); in assay [9] it was 32.8 µM (inactive); in assay [10], 55.2 µM (inactive); in assay [12] it was 37 µM (inactive); in assay [13] it was > 100 µM (inactive). Also, the GI50 is 38.5 µM (inactive) in [14]; 45.3 µM (inactive) in assay [15]; 43 µM (inactive) in [16]; 44 µM (inactive) in assay [17]; > 100 µM (inactive) in assay [18]; 65.6 µM (inactive) in assay [19]. The GI50 in assay [20] is > 100 µM (inactive).

`NC(=O)c1sc2nc3ccccc3n2c1N`: the GI50 in assay [1] was > 100 µM (inactive); in [2], 65.8 µM (inactive); in assay [3], > 100 µM (inactive); in assay [4], 21.5 µM (inactive); in assay [5], > 100 µM (inactive); in assay [6], > 100 µM (inactive). The GI50 was > 100 µM (inactive) in assay [7]; 14.4 µM (inactive) in assay [8]; 21.1 µM (inactive) in assay [9]; > 100 µM (inactive) in assay [10]; 27.2 µM (inactive) in assay [11]; > 100 µM (inactive) in assay [12]. Also, the GI50 was 74.1 µM (inactive) in assay [13]; 69.8 µM (inactive) in [14]; 23.8 µM (inactive) in assay [15]; 51.8 µM (inactive) in assay [16]; > 100 µM (inactive) in [17]; 24.9 µM (inactive) in [18]. The GI50 in assay [19] was 46 µM (inactive); in [20], 40 µM (inactive).

`COc1ccc(-c2cc3c(nn2)-c2ccccc2C3=O)cc1`: the GI50 in [1] was 6.38 µM (inactive); in [2] it was > 10 µM (inactive); in assay [3] it was > 10 µM (inactive); in assay [4], > 10 µM (inactive); in assay [5], > 10 µM (inactive); in assay [6] it was > 10 µM (inactive). Moreover, the GI50 in [7], in assay [8], in assay [9], in assay [10], in assay [11] and in [12] was > 10 µM (inactive) each time. In addition, the GI50 was 7.71 µM (inactive) in [13]; > 10 µM (inactive) in [14]; > 10 µM (inactive) in assay [15]; > 10 µM (inactive) in assay [16]; > 10 µM (inactive) in assay [17]; > 10 µM (inactive) in assay [18]. Also, the GI50 in assay [19] and in assay [20] was > 10 µM (inactive) each time.

`CCCCCCCCCCCCNC(=O)CCC(NC(=O)c1ccc(N(C)Cc2cnc3nc(N)nc(N)c3n2)cc1)C(=O)NCCCCCCCCCCCC` (configuration not stated): the GI50 is 25.8 µM (inactive) in assay [1]; 16.9 µM (inactive) in assay [2]; > 100 µM (inactive) in assay [3]; > 100 µM (inactive) in [4]; 56.5 µM (inactive) in assay [5]; > 100 µM (inactive) in assay [6]. For the same compound, the GI50 in assay [7] was 24.4 µM (inactive); in [8] it was 41.2 µM (inactive); in assay [9], 18.4 µM (inactive); in assay [10], > 100 µM (inactive); in assay [12], 95.5 µM (inactive); in assay [13], 26.6 µM (inactive). Further, the GI50 in assay [14] is 9.44 µM (inactive); in [15], 25.4 µM (inactive); in assay [16], 22.9 µM (inactive); in assay [17], > 100 µM (inactive); in [18], 10.1 µM (inactive); in [19], 27.2 µM (inactive). In assay [20], the GI50 is 22.6 µM (inactive).

In the case of `C#CCOC(=O)C(N)CSSCC(N)C(=O)O` (configuration not stated), the GI50 in [1], in [2], in assay [3], in assay [4], in assay [5] and in [6] was > 100 µM (inactive) in each case. Further, the GI50 in assay [7], in assay [8], in assay [9], in assay [10], in assay [12] and in [13] was > 100 µM (inactive) each time. Besides, the GI50 in assay [14], in assay [16], in assay [17], in [18], in [19] and in assay [20] was > 100 µM (inactive) throughout.

With `Nc1nc(Cl)cc(NCC2(O)CC(CO)C2)n1` (configuration not stated), the GI50 in assay [1], in assay [2], in assay [3], in assay [4], in assay [6] and in assay [7] was > 100 µM (inactive) in each case. The GI50 in assay [8], in assay [9], in assay [10], in assay [11], in assay [12] and in assay [13] was > 100 µM (inactive) each time. Moreover, the GI50 in assay [14], in [15], in [16], in assay [17], in assay [18] and in assay [19] was > 100 µM (inactive) in each case. In addition, the GI50 in assay [20] is > 100 µM (inactive).

As for `Cc1ccc(NC(=O)c2cc(S(=O)(=O)N3CCNNC3=O)c(S)cc2Cl)cc1`, the GI50 was > 100 µM (inactive) in [1]; > 100 µM (inactive) in assay [2]; > 100 µM (inactive) in [3]; > 100 µM (inactive) in assay [4]; > 100 µM (inactive) in [5]; 28.2 µM (inactive) in [6]. The GI50 in assay [7] was 41.8 µM (inactive); in assay [8], 28.9 µM (inactive); in assay [9], 27.3 µM (inactive); in [10], > 100 µM (inactive); in assay [12], > 100 µM (inactive); in [13], > 100 µM (inactive). Besides, the GI50 in [14] was 41.3 µM (inactive); in assay [15] it was > 100 µM (inactive); in assay [16] it was > 100 µM (inactive); in assay [17], > 100 µM (inactive); in assay [18] it was > 100 µM (inactive); in [19] it was > 100 µM (inactive). Also, the GI50 in assay [20] was > 100 µM (inactive).

On to `O=c1c2cc(Cl)cc(Cl)c2oc2nc3n(c(=O)c12)CCCS3`, for which the GI50 in assay [1] is 92.5 µM (inactive); in assay [3] it was > 100 µM (inactive); in assay [4], > 100 µM (inactive); in assay [5], > 100 µM (inactive); in assay [6] it was > 100 µM (inactive); in [7] it was 57.1 µM (inactive). Further, the GI50 in [8] is 47.6 µM (inactive); in assay [9] it was > 100 µM (inactive); in assay [10], > 100 µM (inactive); in [11], > 100 µM (inactive); in [12] it was > 100 µM (inactive); in [13], > 100 µM (inactive). The GI50 in assay [14], in assay [15], in assay [16], in [17], in assay [18] and in assay [19] was > 100 µM (inactive) each time. Also, the GI50 in [20] was > 100 µM (inactive).

Regarding `CN(C)CCNC(=O)c1ccc(NC(=O)c2nc([N+](=O)[O-])cn2C)cc1`, the GI50 in assay [1], in [2], in assay [3], in [4], in assay [5] and in assay [6] was > 100 µM (inactive) throughout. Besides, the GI50 in [7], in assay [8], in assay [9], in assay [10], in assay [11] and in [12] was > 100 µM (inactive) throughout. Further, the GI50 in assay [13], in assay [14], in [15], in assay [17], in assay [18] and in [19] was > 100 µM (inactive) each time. Further, the GI50 in assay [20] was > 100 µM (inactive).
